Values of other authors as cited in article PMC9653995, “New Positive TRPC6 Modulator Penetrates Blood–Brain Barrier, Eliminates Synaptic Deficiency and Restores Memory Deficit in 5xFAD Mice” (International Journal of Molecular Sciences, 2022).

System: TRPC3
Settings: cited from earlier work

In the case of O=C(c1cc2c(s1)CCCCC2)N1CCC(n2c(=O)[nH]c3ccccc32)CC1 [GSK1702934A, reference compound], the “activation of TRPC3” value is given as “activate TRPC3”.
